Laboratory results taken from ChEMBL document CHEMBL3045319, “Synthesis, antitumor activity, and structureactivity relationship of some 4H-pyrano[3,2-h]quinoline and 7H-pyrimido[4,5:6,5]pyrano[3,2-h]quinoline derivatives” (Med Chem Res, 2013).
In brackets after ≈: the same amount, converted by molar mass.

What was measured:
HepG2 [1] = assay: Cytotoxicity against Homo sapiens (human) HepG2 cells after 48 hr by MTT assay; assay type: functional, cell-based
HepG2 [2] = assay: Cytotoxicity against Homo sapiens (human) HepG2 cells assessed as cell viability at 1.56 ug/ml after 48 hr by MTT assay relative to control; assay type: functional; details: HepG2, 48 h, read-out: Activity
HepG2 [3] = assay: Cytotoxicity against Homo sapiens (human) HepG2 cells assessed as cell viability at 3.125 ug/ml after 48 hr by MTT assay relative to control; assay type: functional; details: HepG2, 48 h, read-out: Activity
HepG2 [4] = assay: Cytotoxicity against Homo sapiens (human) HepG2 cells assessed as cell viability at 6.25 ug/ml after 48 hr by MTT assay relative to control; assay type: functional; details: HepG2, 48 h, read-out: Activity
HepG2 [5] = assay: Cytotoxicity against Homo sapiens (human) HepG2 cells assessed as cell viability at 12.5 ug/ml after 48 hr by MTT assay relative to control; assay type: functional; details: HepG2, 48 h, read-out: Activity
HepG2 [6] = assay: Cytotoxicity against Homo sapiens (human) HepG2 cells assessed as cell viability at 25 ug/ml after 48 hr by MTT assay relative to control; assay type: functional; details: HepG2, 48 h, read-out: Activity
HepG2 [7] = assay: Cytotoxicity against Homo sapiens (human) HepG2 cells assessed as cell viability at 50 ug/ml after 48 hr by MTT assay relative to control; assay type: functional; details: HepG2, 48 h, read-out: Activity
[8] = Cytotoxicity against Homo sapiens (human) HCT cells after 48 hr by MTT assay; assay type: functional, cell-based
[9] = Cytotoxicity against Homo sapiens (human) HCT cells assessed as cell viability at 1.56 ug/ml after 48 hr by MTT assay relative to control; assay type: functional; details: read-out: Activity
[10] = Cytotoxicity against Homo sapiens (human) HCT cells assessed as cell viability at 6.25 ug/ml after 48 hr by MTT assay relative to control; assay type: functional; details: read-out: Activity
MCF7 [11] = assay: Cytotoxicity against Homo sapiens (human) MCF7 cells assessed as cell viability at 1.56 ug/ml after 48 hr by MTT assay relative to control; assay type: functional; details: MCF7, 48 h, read-out: Activity
MCF7 [12] = assay: Cytotoxicity against Homo sapiens (human) MCF7 cells assessed as cell viability at 3.125 ug/ml after 48 hr by MTT assay relative to control; assay type: functional; details: MCF7, 48 h, read-out: Activity
MCF7 [13] = assay: Cytotoxicity against Homo sapiens (human) MCF7 cells assessed as cell viability at 12.5 ug/ml after 48 hr by MTT assay relative to control; assay type: functional; details: MCF7, 48 h, read-out: Activity
MCF7 [14] = assay: Cytotoxicity against Homo sapiens (human) MCF7 cells assessed as cell viability at 6.25 ug/ml after 48 hr by MTT assay relative to control; assay type: functional; details: MCF7, 48 h, read-out: Activity
MCF7 [15] = assay: Cytotoxicity against Homo sapiens (human) MCF7 cells assessed as cell viability at 50 ug/ml after 48 hr by MTT assay relative to control; assay type: functional; details: MCF7, 48 h, read-out: Activity
MCF7 [16] = assay: Cytotoxicity against Homo sapiens (human) MCF7 cells assessed as cell viability at 25 ug/ml after 48 hr by MTT assay relative to control; assay type: functional; details: MCF7, 48 h, read-out: Activity
[17] = Cytotoxicity against Homo sapiens (human) HCT cells assessed as cell viability at 3.125 ug/ml after 48 hr by MTT assay relative to control; assay type: functional; details: read-out: Activity
[18] = Cytotoxicity against Homo sapiens (human) HCT cells assessed as cell viability at 12.5 ug/ml after 48 hr by MTT assay relative to control; assay type: functional; details: read-out: Activity
[19] = Cytotoxicity against Homo sapiens (human) HCT cells assessed as cell viability at 25 ug/ml after 48 hr by MTT assay relative to control; assay type: functional; details: read-out: Activity
[20] = Cytotoxicity against Homo sapiens (human) HCT cells assessed as cell viability at 50 ug/ml after 48 hr by MTT assay relative to control; assay type: functional; details: read-out: Activity
MCF7 [21] = assay: Cytotoxicity against Homo sapiens (human) MCF7 cells after 48 hr by MTT assay; assay type: functional, cell-based; details: MCF7, 48 h
[22] = Homo sapiens, HepG2, 48 h, read-out: IC50

## N#CC1=C(N)Oc2c(ccc3cccnc23)C1c1ccc(Cl)cc1 (centres undefined)
HepG2 [1]; [22]
  IC50: > 50 µg/mL
HepG2 [2]
  viability at 1.56 µg/mL: 79.6%
HepG2 [3]
  viability at 3.125 µg/mL: 68.5%
HepG2 [4]
  viability at 6.25 µg/mL: 68.2%
HepG2 [5]
  viability at 12.5 µg/mL: 63.5%
HepG2 [6]
  viability at 25 µg/mL: 57.2%
HepG2 [7]
  viability at 50 µg/mL: 52.8%
[8]
  IC50: 24 µg/mL (≈ 71.9 µM)
[9]
  viability at 1.56 µg/mL: 100%
[10]
  viability at 6.25 µg/mL: 76.8%
MCF7 [11]
  viability at 1.56 µg/mL: 100%
MCF7 [12]
  viability at 3.125 µg/mL: 91.6%
MCF7 [13]
  viability at 12.5 µg/mL: 72.9%
MCF7 [14]
  viability at 6.25 µg/mL: 82.5%
MCF7 [15]
  viability at 50 µg/mL: 26.8%
MCF7 [16]
  viability at 25 µg/mL: 49.8%
[17]
  viability at 3.125 µg/mL: 92.6%
[18]
  viability at 12.5 µg/mL: 67.4%
[19]
  viability at 25 µg/mL: 48.2%
[20]
  viability at 50 µg/mL: 27.4%
MCF7 [21]
  IC50: 24.9 µg/mL (≈ 74.6 µM)

## N#CC1=C(N)Oc2c(ccc3cccnc23)C1c1ccc(Br)cc1 (centres undefined)
HepG2 [1]; hepg2
  IC50: Not Active
HepG2 [2]
  viability at 1.56 µg/mL: 100%
HepG2 [3]
  viability at 3.125 µg/mL: 100%
HepG2 [4]
  viability at 6.25 µg/mL: 100%
HepG2 [5]
  viability at 12.5 µg/mL: 98.3%
HepG2 [6]
  viability at 25 µg/mL: 96.3%
HepG2 [7]
  viability at 50 µg/mL: 91.8%
[8]
  IC50: 43.7 µg/mL (≈ 116 µM)
[9]
  viability at 1.56 µg/mL: 100%
[10]
  viability at 6.25 µg/mL: 97.8%
MCF7 [11]
  viability at 1.56 µg/mL: 94.8%
MCF7 [12]
  viability at 3.125 µg/mL: 83.9%
MCF7 [13]
  viability at 12.5 µg/mL: 70%
MCF7 [14]
  viability at 6.25 µg/mL: 75.7%
MCF7 [15]
  viability at 50 µg/mL: 39.1%
MCF7 [16]
  viability at 25 µg/mL: 58.9%
[17]
  viability at 3.125 µg/mL: 100%
[18]
  viability at 12.5 µg/mL: 91.2%
[19]
  viability at 25 µg/mL: 78.4%
[20]
  viability at 50 µg/mL: 42.4%
MCF7 [21]
  IC50: 34.8 µg/mL (≈ 92 µM)

## Cc1ccc2ccc3c(c2n1)OC(N)=C(C#N)C3c1ccc(Cl)cc1 (centres undefined)
HepG2 [1]; [22]
  IC50: 1.8 µg/mL (≈ 5.18 µM)
HepG2 [2]
  viability at 1.56 µg/mL: 51.9%
HepG2 [3]
  viability at 3.125 µg/mL: 43%
HepG2 [4]
  viability at 6.25 µg/mL: 37.6%
HepG2 [5]
  viability at 12.5 µg/mL: 35.6%
HepG2 [6]
  viability at 25 µg/mL: 33.7%
HepG2 [7]
  viability at 50 µg/mL: 23.1%
[8]
  IC50: 15.8 µg/mL (≈ 45.4 µM)
[9]
  viability at 1.56 µg/mL: 94%
[10]
  viability at 6.25 µg/mL: 66.8%
MCF7 [11]
  viability at 1.56 µg/mL: 100%
MCF7 [12]
  viability at 3.125 µg/mL: 87%
MCF7 [13]
  viability at 12.5 µg/mL: 71.4%
MCF7 [14]
  viability at 6.25 µg/mL: 78.2%
MCF7 [15]
  viability at 50 µg/mL: 28%
MCF7 [16]
  viability at 25 µg/mL: 58.2%
[17]
  viability at 3.125 µg/mL: 79%
[18]
  viability at 12.5 µg/mL: 55.6%
[19]
  viability at 25 µg/mL: 35.8%
[20]
  viability at 50 µg/mL: 27.6%
MCF7 [21]
  IC50: 27.9 µg/mL (≈ 80.2 µM)

## Cc1ccc2ccc3c(c2n1)OC(N)=C(C#N)C3c1ccc(Br)cc1 (centres undefined)
HepG2 [1]; [22]
  IC50: 5.5 µg/mL (≈ 14 µM)
HepG2 [2]
  viability at 1.56 µg/mL: 77.5%
HepG2 [3]
  viability at 3.125 µg/mL: 64%
HepG2 [4]
  viability at 6.25 µg/mL: 44.9%
HepG2 [5]
  viability at 12.5 µg/mL: 39.6%
HepG2 [6]
  viability at 25 µg/mL: 29.3%
HepG2 [7]
  viability at 50 µg/mL: 22%
[8]
  IC50: 22.8 µg/mL (≈ 58.1 µM)
[9]
  viability at 1.56 µg/mL: 100%
[10]
  viability at 6.25 µg/mL: 66.6%
MCF7 [11]
  viability at 1.56 µg/mL: 93.9%
MCF7 [12]
  viability at 3.125 µg/mL: 82.3%
MCF7 [13]
  viability at 12.5 µg/mL: 71.8%
MCF7 [14]
  viability at 6.25 µg/mL: 75.2%
MCF7 [15]
  viability at 50 µg/mL: 41.2%
MCF7 [16]
  viability at 25 µg/mL: 62.3%
[17]
  viability at 3.125 µg/mL: 88%
[18]
  viability at 12.5 µg/mL: 58.2%
[19]
  viability at 25 µg/mL: 48.8%
[20]
  viability at 50 µg/mL: 36.6%
MCF7 [21]
  IC50: 38.9 µg/mL (≈ 99.2 µM)
